Activity calls are given as the source filed them. The calls are words filed in the database; no cut-off is given here.
Assays:
[1] = target: T1, Phosphatidylinositol 4,5-bisphosphate 3-kinase catalytic subunit delta isoform (Homo sapiens) (UniProt O00329); assay: Inhibition of PI3Kdelta (unknown origin) at 0.01 uM using phosphatidylinositol as substrate incubated for 30 mins in presence of ATP by HTRF based assay relative to control
T1 sequence (whole entry): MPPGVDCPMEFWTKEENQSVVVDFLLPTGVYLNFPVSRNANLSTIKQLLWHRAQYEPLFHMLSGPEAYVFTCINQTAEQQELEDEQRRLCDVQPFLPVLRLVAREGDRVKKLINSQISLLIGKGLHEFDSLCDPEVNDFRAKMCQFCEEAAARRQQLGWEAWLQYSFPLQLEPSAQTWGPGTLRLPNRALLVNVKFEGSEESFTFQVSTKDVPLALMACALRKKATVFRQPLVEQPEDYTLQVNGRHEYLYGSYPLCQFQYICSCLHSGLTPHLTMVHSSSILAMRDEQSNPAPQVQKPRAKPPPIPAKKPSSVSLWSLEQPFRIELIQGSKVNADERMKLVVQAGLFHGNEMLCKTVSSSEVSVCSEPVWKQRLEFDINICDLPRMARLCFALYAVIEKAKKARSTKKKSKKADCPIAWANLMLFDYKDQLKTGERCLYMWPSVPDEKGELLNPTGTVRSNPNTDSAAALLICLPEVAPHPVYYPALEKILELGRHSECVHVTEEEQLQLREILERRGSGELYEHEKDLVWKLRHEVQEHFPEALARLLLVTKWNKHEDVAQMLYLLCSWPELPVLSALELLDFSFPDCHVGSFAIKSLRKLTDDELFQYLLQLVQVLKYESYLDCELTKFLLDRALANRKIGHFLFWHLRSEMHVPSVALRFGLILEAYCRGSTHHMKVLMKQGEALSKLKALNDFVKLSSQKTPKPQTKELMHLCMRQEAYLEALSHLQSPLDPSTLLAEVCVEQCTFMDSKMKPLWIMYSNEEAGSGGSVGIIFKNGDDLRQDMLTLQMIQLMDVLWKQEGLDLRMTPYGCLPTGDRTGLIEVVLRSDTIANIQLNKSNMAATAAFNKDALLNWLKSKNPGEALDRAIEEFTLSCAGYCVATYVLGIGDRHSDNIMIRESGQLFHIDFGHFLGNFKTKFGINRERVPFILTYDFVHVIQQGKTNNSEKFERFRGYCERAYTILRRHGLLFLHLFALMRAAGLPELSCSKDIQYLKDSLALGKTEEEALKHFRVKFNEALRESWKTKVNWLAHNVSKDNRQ

[2] = target: T2, Phosphatidylinositol 4,5-bisphosphate 3-kinase catalytic subunit beta isoform (Homo sapiens, UniProt P42338); assay: Inhibition of PI3Kbeta (unknown origin)
Target sequence in this assay (P42338 whole entry, canonical isoform): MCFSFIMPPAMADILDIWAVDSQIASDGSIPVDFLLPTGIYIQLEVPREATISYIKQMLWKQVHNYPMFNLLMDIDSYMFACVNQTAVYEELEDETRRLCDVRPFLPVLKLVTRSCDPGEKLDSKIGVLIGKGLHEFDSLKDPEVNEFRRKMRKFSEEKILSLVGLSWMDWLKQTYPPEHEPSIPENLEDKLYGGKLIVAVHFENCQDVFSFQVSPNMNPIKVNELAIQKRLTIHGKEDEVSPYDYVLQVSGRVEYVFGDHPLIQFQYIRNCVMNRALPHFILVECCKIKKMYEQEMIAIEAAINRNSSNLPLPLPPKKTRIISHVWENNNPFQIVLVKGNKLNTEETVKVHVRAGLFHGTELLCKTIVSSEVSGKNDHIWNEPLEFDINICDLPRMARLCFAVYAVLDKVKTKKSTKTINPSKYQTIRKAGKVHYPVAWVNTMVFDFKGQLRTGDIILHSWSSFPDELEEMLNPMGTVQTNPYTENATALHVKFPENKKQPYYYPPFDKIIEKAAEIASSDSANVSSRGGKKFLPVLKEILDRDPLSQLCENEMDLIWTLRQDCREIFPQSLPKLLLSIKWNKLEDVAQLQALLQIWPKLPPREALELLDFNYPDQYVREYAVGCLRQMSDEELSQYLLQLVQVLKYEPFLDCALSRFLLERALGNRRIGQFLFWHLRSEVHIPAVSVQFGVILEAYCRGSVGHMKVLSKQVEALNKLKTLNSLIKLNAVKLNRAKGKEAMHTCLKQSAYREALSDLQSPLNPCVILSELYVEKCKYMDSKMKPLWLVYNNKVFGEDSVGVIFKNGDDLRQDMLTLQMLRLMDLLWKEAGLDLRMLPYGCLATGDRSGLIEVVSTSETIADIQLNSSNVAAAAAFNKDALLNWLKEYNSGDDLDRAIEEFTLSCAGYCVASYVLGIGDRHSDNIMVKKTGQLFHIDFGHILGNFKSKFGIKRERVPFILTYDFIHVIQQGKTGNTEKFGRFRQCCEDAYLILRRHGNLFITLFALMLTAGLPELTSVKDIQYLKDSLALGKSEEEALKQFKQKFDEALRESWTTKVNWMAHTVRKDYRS

[3] = target: T1, Phosphatidylinositol 4,5-bisphosphate 3-kinase catalytic subunit delta isoform (Homo sapiens); assay: Inhibition of PI3Kdelta (unknown origin) at 0.1 uM using phosphatidylinositol as substrate incubated for 30 mins in presence of ATP by HTRF based assay relative to control
in vitro = settings: human, liver microsomes
[4] = target: T3, Phosphatidylinositol 4,5-bisphosphate 3-kinase catalytic subunit gamma isoform (Homo sapiens, UniProt P48736); assay: Inhibition of PI3Kgamma (unknown origin)
Target sequence in this assay (P48736 whole entry, canonical isoform): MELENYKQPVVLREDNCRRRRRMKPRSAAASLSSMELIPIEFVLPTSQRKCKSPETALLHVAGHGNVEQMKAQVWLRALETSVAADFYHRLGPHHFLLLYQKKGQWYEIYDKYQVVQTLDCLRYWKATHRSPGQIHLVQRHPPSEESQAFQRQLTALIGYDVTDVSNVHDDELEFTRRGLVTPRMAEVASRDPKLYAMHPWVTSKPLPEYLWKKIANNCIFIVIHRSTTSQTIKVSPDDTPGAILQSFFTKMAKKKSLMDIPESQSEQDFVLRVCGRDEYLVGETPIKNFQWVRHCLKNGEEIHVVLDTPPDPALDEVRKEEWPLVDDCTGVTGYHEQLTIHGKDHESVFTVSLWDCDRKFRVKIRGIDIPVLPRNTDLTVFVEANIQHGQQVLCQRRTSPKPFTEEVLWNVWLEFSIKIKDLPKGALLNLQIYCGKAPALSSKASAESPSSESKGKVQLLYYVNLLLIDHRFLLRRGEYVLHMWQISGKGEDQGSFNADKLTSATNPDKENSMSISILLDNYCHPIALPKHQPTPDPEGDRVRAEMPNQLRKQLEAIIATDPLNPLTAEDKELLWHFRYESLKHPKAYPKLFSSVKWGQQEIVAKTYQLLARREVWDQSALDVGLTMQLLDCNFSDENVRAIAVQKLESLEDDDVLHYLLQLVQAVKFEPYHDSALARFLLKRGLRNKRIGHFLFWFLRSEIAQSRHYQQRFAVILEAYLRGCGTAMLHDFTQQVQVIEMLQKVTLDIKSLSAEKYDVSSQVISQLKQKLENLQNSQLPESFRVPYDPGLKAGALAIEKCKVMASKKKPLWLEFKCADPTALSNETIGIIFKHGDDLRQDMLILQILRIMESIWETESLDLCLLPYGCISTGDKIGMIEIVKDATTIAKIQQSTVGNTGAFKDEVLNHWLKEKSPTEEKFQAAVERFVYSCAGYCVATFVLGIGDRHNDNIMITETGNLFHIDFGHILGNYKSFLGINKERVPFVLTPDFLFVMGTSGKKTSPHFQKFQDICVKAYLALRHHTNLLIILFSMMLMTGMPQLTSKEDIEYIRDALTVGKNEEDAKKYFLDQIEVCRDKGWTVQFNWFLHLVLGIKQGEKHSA

[5] = target: T4, Phosphatidylinositol 4,5-bisphosphate 3-kinase catalytic subunit alpha isoform (Homo sapiens, UniProt P42336); assay: Inhibition of PI3Kalpha (unknown origin)
[6] = target: T5, Phosphatidylinositol 4,5-bisphosphate 3-kinase catalytic subunit delta isoform (Homo sapiens, UniProt O00329); assay: Inhibition of PI3Kdelta (unknown origin)
T5 sequence (O00329 whole entry): T1 sequence (whole entry)

[7] = Toxicity in mouse at 100 mg/kg, po; format: organism-based; settings: in vivo
[8] = human, microsomes, 10 µM
Mus musculus [9] = assay: Antiarthritic activity in collagen-induced rheumatoid arthritis DBA1/J mouse model assessed as reduction in disease severity at 20 mg/kg, po qd measured once daily for 24 to 27 days; format: functional, organism-based; settings: time 24-27 day
[10] = target: Phosphatidylinositol 4,5-bisphosphate 3-kinase catalytic subunit gamma isoform (Mus musculus, UniProt Q9JHG7); assay: Inhibition of PI3Kgamma in c5a-stimulated mouse RAW264.7 cells assessed as reduction in AKT phosphorylation at S473 residue incubated for 30 mins; format: cell-based
[11] = target: T4, Phosphatidylinositol 4,5-bisphosphate 3-kinase catalytic subunit alpha isoform; assay: Inhibition of PI3Kalpha (unknown origin) at 0.1 uM relative to control
[12] = target: T3, Phosphatidylinositol 4,5-bisphosphate 3-kinase catalytic subunit gamma isoform; assay: Inhibition of PI3Kgamma (unknown origin) at 0.1 uM relative to control
Target sequence in this assay (P48736 whole entry, looked up, canonical isoform): as the sequence (P48736 whole entry, canonical isoform) above

[13] = target: T2, Phosphatidylinositol 4,5-bisphosphate 3-kinase catalytic subunit beta isoform; assay: Inhibition of PI3Kbeta (unknown origin) at 0.1 uM relative to control
Target sequence in this assay (P42338 whole entry, looked up, canonical isoform): as the sequence (P42338 whole entry, canonical isoform) above

L02 = assay: Cytotoxicity against human L02 cells assessed as reduction in cell viability incubated for 72 hrs by CCK-8 assay; format: toxicity, cell-based; settings: l02, 72 h
Mus musculus [14] = assay: Antiarthritic activity against collagen-induced arthritis DBA1/J mouse model assessed as signs of inflammation at 20 mg/kg, po measured after 24 hrs by H and E staining based analysis; format: functional, organism-based
[15] = AUC in Sprague-Dawley rat at 5 mg/kg, po incubated for 5 to 24 hrs by LC-MS/MS analysis; format: ADME, organism-based; design: dose 5 mg/kg, time upper 24 hrs, time lower 5 hrs, route po; settings: in vivo
[16] = Tmax in Sprague-Dawley rat at 5 mg/kg, po incubated for 5 to 24 hrs by LC-MS/MS analysis; format: ADME, organism-based; settings: in vivo, time 5-24 hrs
[17] = AUC in Sprague-Dawley rat at 5 mg/kg, iv incubated for 5 to 24 hrs by LC-MS/MS analysis; format: ADME, organism-based; design: time 5-24 hrs, dose 5 mg/kg, route iv; settings: in vivo
[18] = Volume of distribution at steady state in Sprague-Dawley rat at 5 mg/kg, po incubated for 5 to 24 hrs by LC-MS/MS analysis; format: ADME, organism-based; settings: in vivo, time 5-24 hrs
L929 = assay: Cytotoxicity against mouse L929 cells assessed as reduction in cell viability incubated for 72 hrs by CCK-8 assay; format: toxicity, cell-based; settings: l929, 72 h
[19] = target: T4, Phosphatidylinositol 4,5-bisphosphate 3-kinase catalytic subunit alpha isoform; assay: Inhibition of PI3Kalpha in human SK-OV-3 cells assessed as reduction in AKT phosphorylation at S473 residue incubated for 30 mins; format: cell-based
HEK293 = assay: Cytotoxicity against HEK293 cells assessed as reduction in cell viability incubated for 72 hrs by CCK-8 assay; format: toxicity, cell-based; settings: human, hek293, 72 h
[20] = Elimination half life in Sprague-Dawley rat at 5 mg/kg, po incubated for 5 to 24 hrs by LC-MS/MS analysis; format: ADME, organism-based; settings: in vivo, time 5-24 hrs, read-out: beta t1/2 (converted)
[21] = target: T5, Phosphatidylinositol 4,5-bisphosphate 3-kinase catalytic subunit delta isoform; assay: Inhibition of PI3Kdelta in anti-IgM-stimulated human Raji cells assessed as reduction in AKT phosphorylation at S473 residue incubated for 30 mins; format: cell-based
[22] = MRT in Sprague-Dawley rat at 5 mg/kg, po incubated for 5 to 24 hrs by LC-MS/MS analysis; format: ADME, organism-based; settings: in vivo, time 5-24 hrs
Mus musculus [23] = assay: Antiarthritic activity against collagen-induced arthritis DBA1/J mouse model assessed as paw swelling of forelimb at 5 to 20 mg/kg, po measured on day 27; format: functional, organism-based; settings: dose 5-20 mg/kg, time 27.0 day
[24] = Oral bioavailability Sprague-Dawley rat at 5 mg/kg incubated for 5 to 24 hrs by LC-MS/MS analysis; format: ADME, organism-based; settings: in vivo, time 5-24 hrs
[25] = Tmax in Sprague-Dawley rat at 5 mg/kg, iv incubated for 5 to 24 hrs by LC-MS/MS analysis; format: ADME, organism-based; settings: in vivo, time 5-24 hrs
Mus musculus [26] = assay: Antiarthritic activity against collagen-induced arthritis DBA1/J mouse model assessed as paw swelling of hindlimb at 5 to 20 mg/kg, po measured on day 27; format: functional, organism-based; settings: dose 5-20 mg/kg, time 27.0 day
[27] = target: T5, Phosphatidylinositol 4,5-bisphosphate 3-kinase catalytic subunit delta isoform; assay: Inhibition of PI3Kdelta in anti-IgM-stimulated human whole blood B cell degranulation incubated for 60 mins by flow cytometry; format: tissue-based
[28] = target: T2, Phosphatidylinositol 4,5-bisphosphate 3-kinase catalytic subunit beta isoform; assay: Inhibition of PI3Kbeta in human 786-0 cells assessed as reduction in AKT phosphorylation at S473 residue incubated for 30 mins; format: cell-based
Target sequence in this assay (P42338 whole entry, canonical isoform): as above

Mus musculus [29] = assay: Antiarthritic activity in collagen-induced rheumatoid arthritis po dosed DBA1/J mouse model assessed as reduction in disease severity measured once daily for 24 to 27 days; format: functional, organism-based; settings: dose 5-20 mg/kg, time 24-27 day, DDE = dose-dependent effect
[30] = MRT in Sprague-Dawley rat at 5 mg/kg, iv incubated for 5 to 24 hrs by LC-MS/MS analysis; format: ADME, organism-based; settings: in vivo, time 5-24 hrs
H9c2 = assay: Cytotoxicity against rat H9c2 cells assessed as reduction in cell viability incubated for 72 hrs by CCK-8 assay; format: toxicity, cell-based; settings: h9c2, 72 h
Mus musculus [31] = assay: Antiarthritic activity against collagen-induced arthritis DBA1/J mouse model assessed as bone erosion at 20 mg/kg, po measured after 24 hrs by H and E staining based analysis; format: functional, organism-based
Mus musculus [32] = assay: Antiarthritic activity against collagen-induced arthritis DBA1/J mouse model assessed as destruction of cartilage at 20 mg/kg, po measured after 24 hrs by Safranin-O staining based microscopic analysis; format: functional, organism-based
[33] = Elimination half life in Sprague-Dawley rat at 5 mg/kg, iv incubated for 5 to 24 hrs by LC-MS/MS analysis; format: ADME, organism-based; settings: in vivo, time 5-24 hrs, read-out: beta t1/2 (converted)
[34] = Volume of distribution at steady state in Sprague-Dawley rat at 5 mg/kg, iv incubated for 5 to 24 hrs by LC-MS/MS analysis; format: ADME, organism-based; settings: in vivo, time 5-24 hrs, read-out: Vdss
[35] = target: T1, Phosphatidylinositol 4,5-bisphosphate 3-kinase catalytic subunit delta isoform (Homo sapiens); assay: Inhibition of PI3Kdelta (unknown origin) at 0.1 uM relative to control

T4 sequence (P42336 whole entry, canonical isoform): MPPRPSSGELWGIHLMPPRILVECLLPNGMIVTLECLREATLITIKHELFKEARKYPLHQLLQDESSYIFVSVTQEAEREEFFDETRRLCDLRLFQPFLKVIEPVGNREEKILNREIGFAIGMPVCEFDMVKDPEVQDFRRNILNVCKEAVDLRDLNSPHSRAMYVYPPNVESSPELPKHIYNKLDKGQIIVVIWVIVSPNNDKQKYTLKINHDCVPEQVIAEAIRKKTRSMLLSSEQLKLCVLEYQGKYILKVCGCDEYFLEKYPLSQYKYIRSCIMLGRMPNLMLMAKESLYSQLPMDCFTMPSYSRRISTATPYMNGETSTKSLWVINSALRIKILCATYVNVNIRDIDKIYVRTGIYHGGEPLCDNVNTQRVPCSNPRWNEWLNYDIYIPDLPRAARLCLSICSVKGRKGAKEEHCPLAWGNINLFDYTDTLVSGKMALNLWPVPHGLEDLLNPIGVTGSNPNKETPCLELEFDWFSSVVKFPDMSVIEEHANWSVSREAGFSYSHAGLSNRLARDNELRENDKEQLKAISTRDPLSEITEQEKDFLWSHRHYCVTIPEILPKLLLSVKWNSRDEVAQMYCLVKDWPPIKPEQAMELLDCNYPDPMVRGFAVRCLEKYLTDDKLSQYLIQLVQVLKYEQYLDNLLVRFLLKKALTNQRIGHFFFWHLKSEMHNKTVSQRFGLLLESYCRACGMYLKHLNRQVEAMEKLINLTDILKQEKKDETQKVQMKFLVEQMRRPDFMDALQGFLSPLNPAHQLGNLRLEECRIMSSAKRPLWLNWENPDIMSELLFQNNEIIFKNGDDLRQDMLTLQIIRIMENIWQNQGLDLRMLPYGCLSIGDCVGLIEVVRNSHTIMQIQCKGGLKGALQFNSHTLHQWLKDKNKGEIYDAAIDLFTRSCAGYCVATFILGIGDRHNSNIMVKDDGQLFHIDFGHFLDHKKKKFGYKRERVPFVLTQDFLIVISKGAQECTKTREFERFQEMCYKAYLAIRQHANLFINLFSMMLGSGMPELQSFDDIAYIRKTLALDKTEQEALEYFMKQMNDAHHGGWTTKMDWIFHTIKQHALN
Chain of Phosphatidylinositol 4,5-bisphosphate 3-kinase catalytic subunit gamma isoform (Mus musculus, UniProt Q9JHG7) (Q9JHG7 whole entry, canonical isoform): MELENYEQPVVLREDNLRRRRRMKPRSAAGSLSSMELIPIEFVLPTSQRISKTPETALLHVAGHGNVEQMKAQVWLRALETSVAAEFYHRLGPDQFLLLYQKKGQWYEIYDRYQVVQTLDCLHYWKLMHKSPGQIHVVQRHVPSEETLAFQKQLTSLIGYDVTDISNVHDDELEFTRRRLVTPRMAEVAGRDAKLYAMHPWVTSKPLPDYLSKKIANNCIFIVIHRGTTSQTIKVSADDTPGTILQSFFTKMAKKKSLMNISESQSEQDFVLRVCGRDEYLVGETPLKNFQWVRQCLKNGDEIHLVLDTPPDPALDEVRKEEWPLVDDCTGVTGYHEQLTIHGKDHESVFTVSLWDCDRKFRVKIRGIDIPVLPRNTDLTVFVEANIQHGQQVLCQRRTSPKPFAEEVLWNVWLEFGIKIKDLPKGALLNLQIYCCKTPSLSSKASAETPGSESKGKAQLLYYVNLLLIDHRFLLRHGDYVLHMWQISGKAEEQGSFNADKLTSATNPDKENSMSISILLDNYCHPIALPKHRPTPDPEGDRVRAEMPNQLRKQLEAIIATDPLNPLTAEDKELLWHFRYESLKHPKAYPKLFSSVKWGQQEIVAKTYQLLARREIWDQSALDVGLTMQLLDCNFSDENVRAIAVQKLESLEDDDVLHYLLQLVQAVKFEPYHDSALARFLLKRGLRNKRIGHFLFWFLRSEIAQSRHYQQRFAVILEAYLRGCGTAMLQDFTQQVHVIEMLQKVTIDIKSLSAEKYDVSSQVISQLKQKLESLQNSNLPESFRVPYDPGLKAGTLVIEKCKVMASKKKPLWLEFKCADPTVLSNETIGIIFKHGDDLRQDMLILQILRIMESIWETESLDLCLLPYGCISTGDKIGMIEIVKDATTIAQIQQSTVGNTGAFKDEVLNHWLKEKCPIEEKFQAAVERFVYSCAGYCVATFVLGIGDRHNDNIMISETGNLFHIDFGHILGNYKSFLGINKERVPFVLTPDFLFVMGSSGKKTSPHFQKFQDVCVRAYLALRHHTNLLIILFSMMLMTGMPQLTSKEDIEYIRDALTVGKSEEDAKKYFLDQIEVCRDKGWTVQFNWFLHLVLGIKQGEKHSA

## N#Cc1c(N)ncnc1N1CC(F)(F)C[C@H]1c1nc2cccc(Cl)c2c(=O)n1-c1ccccc1
[1]
  inhibition: 15%
[2]
  IC50: > 1 µM
[3]
  inhibition: 60%
In vitro
  half-life at 60 h, 10 µM: 2.82 h
[4]
  IC50: > 1 µM
[5]
  IC50: > 1 µM
[6]
  IC50: 0.033 µM
[7]
  Activity: Toxic
[8]
  CLH: 8.2 mL/min/g

## CC[C@H](Nc1ncnc2[nH]cnc12)c1nc2cccc(F)c2c(=O)n1-c1ccccc1 [IDELALISIB]
Mus musculus [9]
  Activity: Active
[10]
  IC50: 1.3 µM

## N#Cc1c(N)ncnc1N1[C@H](c2nc3cccc(Cl)c3c(=O)n2-c2cccnc2)C[C@@H]2CCCC[C@@H]21
[11]
  inhibition: 17%
[12]
  inhibition: 3%
In vitro
  half-life at 60 h, 10 µM: 4.28 h
[6]
  IC50: 0.05 µM
[13]
  inhibition: 17%
[8]
  CLH: 5.4 mL/min/g

## C[C@H]1CC[C@@H](c2nc3cccc(Cl)c3c(=O)n2-c2cccc(F)c2)N1c1ncnc2[nH]cnc12
L02
  Activity: Non-Toxic
Mus musculus [14]
  Activity: Active
[2]
  IC50: 0.375 µM
[15]
  AUC: 4897.74 ng·h/mL
[16]
  Tmax: 4.67 h
[17]
  AUC: 2110.52 ng·h/mL
[18]
  Vdss: 9.1 L/kg
L929
  Activity: Non-Toxic
[19]
  IC50: 4.36 µM
In vitro
  half-life at 60 h, 10 µM: 4.44 h
[4]
  IC50: 0.267 µM
HEK293
  Activity: Non-Toxic
[5]
  IC50: 4.43 µM
[20]
  half-life: 2.06 h
[21]
  IC50: 0.0247 µM
[22]
  MRT: 5.96 h
Mus musculus [23]
  Activity: Active
[24]
  F: 89.9%
[6]
  IC50: 0.014 µM
[25]
  Tmax: 4.8 min
Mus musculus [26]
  Activity: Active
[27]
  IC50: 0.1 µM
[28]
  IC50: 0.943 µM
[10]
  IC50: 0.571 µM
Mus musculus [29]
  Activity: Dde
[30]
  MRT: 2.53 h
H9c2
  Activity: Non-Toxic
Mus musculus [31]
  Activity: Active
Mus musculus [32]
  Activity: Active
[33]
  half-life: 2 h
[8]
  CLH: 5.2 mL/min/g
[34]
  Vd: 7.16 L/kg

## C[C@H]1CC[C@@H](c2nc3cccc(Cl)c3c(=O)n2-c2ccccc2)N1c1nc(N)nc2[nH]cnc12
[11]
  inhibition: 22%
In vitro
  half-life at 60 h, 10 µM: 6.08 h
[4]
  IC50: 0.038 µM
[6]
  IC50: 0.025 µM
[13]
  inhibition: 69%
[8]
  CLH: 3.8 mL/min/g

## N#Cc1c(N)ncnc1N1[C@H](c2nc3cccc(Cl)c3c(=O)n2N2CCOCC2)C[C@@H]2CCCC[C@@H]21
[11]
  inhibition: 24%
[12]
  inhibition: 5%
In vitro
  half-life at 60 h, 10 µM: 2.1 h
[6]
  IC50: 0.014 µM
[13]
  inhibition: 43%
[8]
  CLH: 11 mL/min/g

## N#Cc1c(N)ncnc1N1[C@H](c2nc3cccc(Cl)c3c(=O)n2-c2cccc(OC(F)(F)F)c2)C[C@@H]2CCCC[C@@H]21
[35]
  inhibition: 5%

## N#Cc1c(N)ncnc1N1[C@H](c2nc3cccc(Cl)c3c(=O)n2-c2ccccc2)C[C@@H]2CCCC[C@@H]21
[1]
  inhibition: 10%
[2]
  IC50: > 1 µM
[3]
  inhibition: 43%
In vitro
  half-life at 60 h, 10 µM: 1.17 h
[4]
  IC50: > 1 µM
[5]
  IC50: > 1 µM
[6]
  IC50: 0.09 µM
[7]
  Activity: Non-Toxic
[8]
  CLH: 19.8 mL/min/g

## N#Cc1c(N)ncnc1N1[C@H](c2nc3cccc(Cl)c3c(=O)n2-c2cccc(F)c2)C[C@@H]2CCCC[C@@H]21
[11]
  inhibition: 4%
[12]
  inhibition: 5%
In vitro
  half-life at 60 h, 10 µM: 2.31 h
[6]
  IC50: 0.034 µM
[13]
  inhibition: 17%
[8]
  CLH: 10 mL/min/g

Source: ChEMBL document CHEMBL5149992, “Discovery, Optimization, and Evaluation of Quinazolinone Derivatives with Novel Linkers as Orally Efficacious Phosphoinositide-3-Kinase Delta Inhibitors for Treatment of Inflammatory Diseases” (J Med Chem, 2021)
